This passage reports IC50 and EC50 results from ChEMBL document CHEMBL1177785, “Chemoselective regulation of TREK2 channel: activation by sulfonate chalcones and inhibition by sulfonamide chalcones” (Bioorg Med Chem Lett, 2010).

pEC50, pIC50: −log10 of the molar value.

Assay [1] has as its target T1, Potassium channel subfamily K member 10 (Rattus norvegicus, UniProt Q9JIS4).
T1 sequence (Q9JIS4 whole entry): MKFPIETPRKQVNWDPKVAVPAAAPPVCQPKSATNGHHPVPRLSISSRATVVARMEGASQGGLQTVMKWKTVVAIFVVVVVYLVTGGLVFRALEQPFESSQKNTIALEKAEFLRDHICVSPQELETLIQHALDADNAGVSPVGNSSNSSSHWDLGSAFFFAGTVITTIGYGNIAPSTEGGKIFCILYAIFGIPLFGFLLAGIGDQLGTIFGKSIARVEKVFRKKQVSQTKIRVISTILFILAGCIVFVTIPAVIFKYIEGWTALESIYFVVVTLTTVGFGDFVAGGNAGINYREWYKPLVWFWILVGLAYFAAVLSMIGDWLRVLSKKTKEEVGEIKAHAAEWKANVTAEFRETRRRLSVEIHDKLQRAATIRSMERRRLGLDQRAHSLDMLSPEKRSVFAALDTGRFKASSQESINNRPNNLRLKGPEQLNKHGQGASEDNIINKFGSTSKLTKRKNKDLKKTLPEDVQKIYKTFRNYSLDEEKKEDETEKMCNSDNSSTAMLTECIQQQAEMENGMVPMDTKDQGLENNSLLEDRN
The experiment in a line: Inhibition of rat TREK2 channel -mediated current expressed in HEK293 at 60 mV holding potential by patch clamp method. Format: cell-based. (The patch-clamp technique gives a direct electrical read-out from membranes.)

The target in assay [2] is T1, Potassium channel subfamily K member 10. The experiment in a line: Activation of rat TREK2 channel -mediated current expressed in HEK293 at 60 mV holding potential by patch clamp method. The format is cell-based.

As for `Cc1ccc(S(=O)(=O)Nc2ccc(C(=O)/C=C/c3ccccc3)cc2)cc1`, the pIC50 (usually the IC50 on a negative log10 scale, so that one unit is a factor of ten) in assay [1] is less than 4.00. For `Cc1ccc(S(=O)(=O)Nc2ccc(C(=O)/C=C/c3ccc(O)cc3)cc2)cc1`, the pIC50 in assay [1] was 4.21. Consider `Cc1ccc(S(=O)(=O)Oc2ccc(C(=O)/C=C/c3ccc(O)cc3)cc2)cc1`, for which the pEC50 (as a rule, the EC50 on a negative log10 scale, so that one unit is a factor of ten) in assay [2] is 3.78. In turn, `COc1ccc(/C=C/C(=O)c2ccc(NS(=O)(=O)c3ccc(C)cc3)cc2)cc1` gave a pIC50 in assay [1] of 4.00.
